# US7342028B2, “Medical use for tachykinin antagonists” (Glaxo Group Limited, priority 1991, dated 2008)
# Tests used:
# [1] = tested on: emesis induced by morphine; experiment: morphine-induced emesis, test compound given simultaneously with the emetogen; format: in vivo, ferret; details: compound 3 mg/kg i.p. simultaneously with morphine 0.5 mg/kg s.c.
# cisplatin-induced emesis = cisplatin-induced emesis in the ferret; format: in vivo; details: for anti-emetic activity: inhibition of cisplatin-induced emesis: cisplatin 200 mg/m^2 i.p., compound 3 mg/kg i.p. at first retch
# Description: In this model of emesis the onset of retching and vomiting occurs approximately 1 hour after the administration of cisplatin (200 mg/m^2 i.p.). At the first retch in response to cisplatin, the test compound was administered (e.g. i.p., p.o., i.v., s.c., i.c.v.) and its effect on emesis determined by comparison with appropriate controls (e.g. water).
# [2] = tested on: emesis induced by copper sulphate; experiment: copper sulphate-induced emesis, test compound given simultaneously with the emetogen; format: in vivo, ferret; details: compound 3 mg/kg i.p. simultaneously with copper sulphate 40 mg/kg i.p.
# [3] = tested on: emesis induced by ipecacuanha; experiment: ipecacuanha-induced emesis, test compound given simultaneously with the emetogen; format: in vivo, ferret; details: compound 3 mg/kg i.p. simultaneously with ipecacuanha 2 mg/kg p.o.
# [4] = tested on: emesis induced by cyclophosphamide; experiment: cyclophosphamide-induced emesis, test compound given simultaneously with the emetogen; format: in vivo, ferret; details: compound 3 mg/kg i.p. simultaneously with cyclophosphamide 200 mg/kg i.p.
# NK1 receptor = NK1 receptor (Homo sapiens, UniProt P25103); experiment: NK1 receptor antagonist activity (enantiomer comparison); details: relative to the (2S,3S) enantiomer
# NK1 receptor, sequence (P25103 whole entry, species assumed): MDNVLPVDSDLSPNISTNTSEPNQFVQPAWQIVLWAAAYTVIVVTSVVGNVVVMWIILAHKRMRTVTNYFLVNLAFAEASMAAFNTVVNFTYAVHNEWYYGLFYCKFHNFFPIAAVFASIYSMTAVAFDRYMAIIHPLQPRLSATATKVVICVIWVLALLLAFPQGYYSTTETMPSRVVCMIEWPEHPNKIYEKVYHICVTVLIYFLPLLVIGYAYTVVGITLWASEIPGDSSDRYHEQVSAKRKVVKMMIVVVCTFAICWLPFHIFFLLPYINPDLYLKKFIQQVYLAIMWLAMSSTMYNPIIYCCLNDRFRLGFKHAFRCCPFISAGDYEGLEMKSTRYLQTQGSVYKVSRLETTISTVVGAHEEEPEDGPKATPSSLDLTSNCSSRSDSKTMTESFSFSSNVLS
smiles,measurement,setting,value
COc1ccccc1CN[C@H]1CCCN[C@H]1c1ccccc1 (racemic) [(±) cis-3-(2-methoxybenzylamino)-2-phenyl piperidine],anti-emetic activity against morphine,[1],exhibited anti-emetic activity
same,anti-emetic activity: inhibition of cisplatin-induced emesis,cisplatin-induced emesis,exhibited anti-emetic activity
same,anti-emetic activity against copper sulphate,[2],exhibited anti-emetic activity
same,anti-emetic activity against ipecacuanha,[3],exhibited anti-emetic activity
same,anti-emetic activity against cyclophosphamide,[4],exhibited anti-emetic activity
"COc1ccccc1CN[C@H]1CCCN[C@H]1c1ccccc1 (relative stereo) [(2R,3R) enantiomer, cis-3-(2-methoxybenzylamino)-2-phenyl piperidine]",anti-emetic activity: inhibition of cisplatin-induced emesis,cisplatin-induced emesis; 3 mg/kg,inactive
same,"fold less active as an NK1 receptor antagonist than the (2S,3S) enantiomer",NK1 receptor,1000 fold
"COc1ccccc1CN[C@H]1CCCN[C@H]1c1ccccc1 (relative stereo) [(2S,3S) enantiomer, cis-3-(2-methoxybenzylamino)-2-phenyl piperidine]",anti-emetic activity: inhibition of cisplatin-induced emesis,cisplatin-induced emesis; 3 mg/kg,inhibited
"COc1ccccc1CNC1C2CCN(C2)C1C(c1ccccc1)c1ccccc1 (stereo not drawn) [Example 1, (exo,exo)-2-(Diphenylmethyl)-N-[(2-methoxyphenyl)methyl]-1-azabicyclo[2.2.1]heptan-3-amine]",inhibition of cisplatin-induced emesis,cisplatin-induced emesis; compound 5 mg/kg i.p.,inhibited
